Measurements: PMC10770036, “Novel dual inhibitors of PARP and HDAC induce intratumoral STING-mediated antitumor immunity in triple-negative breast cancer” (Cell Death & Disease, 2024)

Experiments:
recombinant HDAC6 = target: T1, recombinant HDAC6 (Homo sapiens, UniProt Q9UBN7); assay: HDAC6 inhibition assay (Ac-peptide-AMC fluorescence); type: biochemical
T1 construct: purchased BPS Bioscience
T1 sequence (Q9UBN7 1-1215): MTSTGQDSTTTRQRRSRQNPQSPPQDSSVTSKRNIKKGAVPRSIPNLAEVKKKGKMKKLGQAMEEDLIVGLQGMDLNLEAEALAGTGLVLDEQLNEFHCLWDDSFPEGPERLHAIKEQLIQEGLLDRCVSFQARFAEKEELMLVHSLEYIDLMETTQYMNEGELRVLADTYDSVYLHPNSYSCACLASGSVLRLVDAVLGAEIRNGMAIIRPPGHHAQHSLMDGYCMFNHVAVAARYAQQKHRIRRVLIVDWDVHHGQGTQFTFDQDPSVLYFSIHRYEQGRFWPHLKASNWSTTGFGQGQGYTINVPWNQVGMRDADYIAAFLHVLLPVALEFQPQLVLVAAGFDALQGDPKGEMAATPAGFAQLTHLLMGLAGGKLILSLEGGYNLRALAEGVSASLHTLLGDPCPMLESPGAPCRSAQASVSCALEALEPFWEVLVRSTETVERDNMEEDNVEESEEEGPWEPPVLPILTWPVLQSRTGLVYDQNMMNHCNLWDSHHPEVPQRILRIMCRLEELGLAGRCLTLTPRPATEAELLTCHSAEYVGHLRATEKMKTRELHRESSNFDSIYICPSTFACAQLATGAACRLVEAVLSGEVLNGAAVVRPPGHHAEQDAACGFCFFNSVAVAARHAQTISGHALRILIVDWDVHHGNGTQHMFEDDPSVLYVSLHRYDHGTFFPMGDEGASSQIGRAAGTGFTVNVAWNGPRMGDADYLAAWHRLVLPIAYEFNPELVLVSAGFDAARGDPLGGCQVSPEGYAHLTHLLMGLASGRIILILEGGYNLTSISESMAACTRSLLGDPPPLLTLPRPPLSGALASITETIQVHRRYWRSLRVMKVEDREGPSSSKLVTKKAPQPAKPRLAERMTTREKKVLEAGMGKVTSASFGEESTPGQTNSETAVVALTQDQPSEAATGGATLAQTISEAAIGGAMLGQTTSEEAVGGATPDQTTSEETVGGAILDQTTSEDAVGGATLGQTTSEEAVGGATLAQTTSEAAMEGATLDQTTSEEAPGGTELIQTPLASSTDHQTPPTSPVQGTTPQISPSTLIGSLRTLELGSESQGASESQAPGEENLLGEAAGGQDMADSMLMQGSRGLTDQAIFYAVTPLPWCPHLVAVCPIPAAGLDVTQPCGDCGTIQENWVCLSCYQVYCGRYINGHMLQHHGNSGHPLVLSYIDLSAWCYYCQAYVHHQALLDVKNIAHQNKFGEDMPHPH
Procedure: The in vitro HDAC inhibition assays were carried out by Sundia MediTech Co. Ltd. in Shanghai, China. […] Reactions were stopped with trypsin, and the samples were incubated for another 90 min at 37 °C. […] IC50 values were obtained using GraphPad Prism software.

[1] = Body weight of tumor-bearing mice; type: in vivo
Excerpt: MDA-MB-436, MDA-MB-231, and 4T1 cells were orthotopically injected into the fat pads of 6- to 7-week-old female NOD-Prkdc^scid Il2rg^em1Smoc (M-NSG), BALB/c nude and BALB/c mice, respectively. Fourteen 6-week-old female MMTV-PyMT mice were divided into two groups. The […] in each group were littermates. All animal procedures were approved by the Institutional Animal Care and Use Committee at Shenzhen University.
MDA-MB-436 cells (5 × 10^6) were suspended in PBS and Matrigel (Corning) at a 1:1 ratio and orthotopically injected into the fat pads of 6- to 7-week-old female NOD-Prkdc^scid Il2rg^em1Smoc (M-NSG) mice from the Shanghai Model Organisms Center, Inc. MDA-MB-231 cells (5 × 10^6) were suspended in PBS orthotopically injected into the fat pads of 6- to 7-week-old female BALB/c nude mice from the Shanghai Model Organisms Center, Inc. 4T1 cells (1 × 10^6) were suspended in PBS and injected into the fat pads of 6- to 7-week-old […] BALB/c mice from GemPharmatech Co., Ltd. When the tumor size reached 100 mm^3, the mice were randomly divided into three treatment groups without blinding: B102 (15 mg/kg), B302 (50 mg/kg) or vehicle [10% N,N-dimethylacetamide (DMAC, Sangon Biotech) and 6% polyethylene glycol 12-hydroxystearate (Solutol HS-15, MedChem Express, Monmouth Junction, NJ, USA) in saline] treatment via an intraperitoneal injection once daily. […]

PARP2 = target: T2, PARP2 (Homo sapiens, UniProt Q9UGN5); assay: PARP2 enzymatic inhibition assay (PARP2 Colorimetric Assay Kit); type: biochemical
T2 construct: purchased BPS Bioscience 80581
T2 sequence (Q9UGN5 whole entry): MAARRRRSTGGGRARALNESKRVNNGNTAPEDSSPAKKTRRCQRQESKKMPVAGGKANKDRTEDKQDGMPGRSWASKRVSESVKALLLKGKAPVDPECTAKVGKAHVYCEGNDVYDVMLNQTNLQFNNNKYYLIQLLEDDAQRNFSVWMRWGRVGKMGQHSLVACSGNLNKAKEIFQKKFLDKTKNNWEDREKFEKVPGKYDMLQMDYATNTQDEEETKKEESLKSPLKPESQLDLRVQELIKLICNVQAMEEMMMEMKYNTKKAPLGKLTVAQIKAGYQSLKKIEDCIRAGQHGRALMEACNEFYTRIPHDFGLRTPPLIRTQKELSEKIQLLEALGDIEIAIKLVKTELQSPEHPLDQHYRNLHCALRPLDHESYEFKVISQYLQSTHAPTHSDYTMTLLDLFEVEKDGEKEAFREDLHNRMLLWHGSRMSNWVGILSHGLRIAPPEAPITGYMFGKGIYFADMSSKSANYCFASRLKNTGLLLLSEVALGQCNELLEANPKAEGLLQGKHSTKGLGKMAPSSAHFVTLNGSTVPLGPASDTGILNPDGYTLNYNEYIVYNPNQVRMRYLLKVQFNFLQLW
Procedure: Briefly, the 1× histone mixture was added to each well and incubated overnight at 4 °C. Each well was washed three times with 200 µL 1× TBST buffer and filled with 200 µL Blocking buffer at room temperature for 90 min. Then, each well was filled with 25 µL of PARP master mixture (5 μL activated DNA + 2.5 μL 10× PARP Assay mixture + 2.5 μL 10× PARP buffer + 15 μL distilled water). Next, 5 µL of the compound of different concentrations was added to each well, and PARP enzyme was added and incubated at room temperature for 1 h. Next, streptavidin HRP solution was added and incubated at room temperature for 30 min. After adding 100 µL of colorimetric HRP substrate to each well, the plate was incubated until a blue color developed in the positive well, which contained PARP enzyme without inhibitors. The reaction was then quenched with 2 M sulfuric acid, and absorbance at 450 nm was measured using a microplate reader (BioTek, Winooski, VT, USA). After calculating the inhibition rate, the IC50 value was determined.

IC50 (recombinant HDAC6)	IC50 (PARP2)	SMILES	body weights of tumor-bearing mice ([1]; 15 mg/kg/d)	body weights of tumor-bearing mice ([1]; 50 mg/kg/d)
> 10 µM	0.00213 µM	Nc1cc(F)ccc1NC(=O)/C=C/c1ccc(CN2CCN(C(=O)c3cc(Cc4n[nH]c(=O)c5ccccc45)ccc3F)CC2)cc1 [Compound B102]	not obviously altered	
> 10 µM	0.057 µM	Nc1cc(F)ccc1NC(=O)CCc1ccc(CN2CCN(C(=O)c3cc(Cc4n[nH]c(=O)c5ccccc45)ccc3F)CC2)cc1 [Compound B302]		not obviously altered
